Data: patent US12351574B2, “Selective ligands for modulation of GIRK channels” (Northeastern University, priority 2018, dated 2025)

Biological target: T1, GIRK1-S65Y with GIRK4 (Homo sapiens, UniProt P48544+P48549, S65Y)
T1 construct: expressed in transfected cells; host or cells: HEK293-T cells
T1 sequence (P48549 1-501 S65Y): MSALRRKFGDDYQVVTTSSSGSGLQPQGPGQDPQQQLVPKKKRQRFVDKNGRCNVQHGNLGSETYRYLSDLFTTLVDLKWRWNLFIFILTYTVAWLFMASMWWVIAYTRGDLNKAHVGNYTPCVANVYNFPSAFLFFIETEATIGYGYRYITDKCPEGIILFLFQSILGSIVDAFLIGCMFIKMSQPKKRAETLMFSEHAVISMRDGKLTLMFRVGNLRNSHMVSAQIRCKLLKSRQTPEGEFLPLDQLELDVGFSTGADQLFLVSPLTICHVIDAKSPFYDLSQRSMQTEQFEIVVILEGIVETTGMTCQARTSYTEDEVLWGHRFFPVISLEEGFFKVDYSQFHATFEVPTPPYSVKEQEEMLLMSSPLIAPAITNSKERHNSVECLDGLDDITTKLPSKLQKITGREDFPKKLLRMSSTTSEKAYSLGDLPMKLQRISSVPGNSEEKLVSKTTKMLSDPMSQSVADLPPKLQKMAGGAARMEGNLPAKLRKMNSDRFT
T1 sequence (P48544 1-419): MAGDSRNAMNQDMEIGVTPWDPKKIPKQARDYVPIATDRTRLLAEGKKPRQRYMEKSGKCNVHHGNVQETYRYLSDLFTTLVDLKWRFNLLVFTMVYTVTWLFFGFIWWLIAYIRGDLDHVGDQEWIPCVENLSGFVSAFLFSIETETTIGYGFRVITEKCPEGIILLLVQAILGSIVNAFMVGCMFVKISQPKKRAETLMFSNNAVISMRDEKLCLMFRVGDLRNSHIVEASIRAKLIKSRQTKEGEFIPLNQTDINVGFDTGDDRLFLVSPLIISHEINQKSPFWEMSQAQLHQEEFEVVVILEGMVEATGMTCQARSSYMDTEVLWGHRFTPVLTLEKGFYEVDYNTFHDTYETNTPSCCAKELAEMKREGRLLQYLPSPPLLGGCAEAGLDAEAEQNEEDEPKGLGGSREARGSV
Experiment: 5-ptaseOCRL current inhibition, GIRK1/4 channels containing GIRK1-S65Y subunits
Type: cell-based
Source text: To identify changes in specific channel residue interactions with PIP2 upon ligand binding, the inventors carried out Principal Component Analysis (PCA) in the presence and absence of ML297 and GAT1508. The PCA analysis implicated changes in the slide (or interfacial) helix interactions with PIP2 upon ligand binding. Polar interactions could be formed between GIRK2^FD(Y76) and GIRK4^FD(Y71) with the P(4,5) of PIP2 when ML297 was bound to the same subunit (FIG. 39 top, FIG. 40). In contrast, when GAT1508 was bound this interaction was retained by GIRK2^FD but not GIRK4^FD (FIG. 39 bottom, FIG. 40). The corresponding GIRK1(S65) residue (FIG. 41, highlighted with vertical rectangle) could be serving the same role in stabilizing the phosphoinositol headgroup for interactions with non-ligand binding subunits. As polar residues, both Ser and Tyr could form H-bond interactions with PIP2. […]
Patch-clamp recording: Whole-cell currents were recorded with an Axopatch 200B amplifier (Molecular Devices) controlled via a USB-interface (National Instruments) using WinWCP software (University of Strathclyde). […] The barium-sensitive component of the current, observed when cells were perfused with the high-K^+ buffer, was analyzed and was determined by perfusing 5 mM BaCl2 in the high-K^+ buffer at the end of each experiment. […]

| SMILES | τ of current-inhibition (in words) |
| --- | --- |
| Cc1cc(NC(=O)Nc2ccc(Br)s2)n(-c2ccccc2)n1 [GAT1508, 1-(5-bromothiophen-2-yl)-3-(3-methyl-1-phenyl-1H-pyrazol-5-yl)urea] | not statistically increased |
| Cc1cc(NC(=O)Nc2ccc(F)c(F)c2)n(-c2ccccc2)n1 [ML297, reference compound] | not statistically increased |
